What was measured:
Assay type in all cases: in vivo, mouse
Male C57/BL6N mice [1] = assay: Body surface temperature on odor presentation (thermography); details: filter paper scented with 271 μmol odor, mean of 20 min, versus no odor
Method: An influence of a thiazoline-related compound and an odor molecule that induces learned fear on the body surface temperature was analyzed. Male C57/BL6N mice (about 3 months old) were anesthetized with pentobarbital (50 mg/kg, i.p.) 2-3 days before the test, and the back hair was depilated with depilatory cream. On the day of testing, each mouse was placed in a test cage and, after acclimation for 10 min, a filter paper scented with 271 μmol of a thiazoline-related compound (2-methyl-2-thiazoline; 2MT) or an odor molecule that induces learned fear (anisole) was presented in the test cage, and changes in the body surface temperature on the back were analyzed using a thermography camera (NEC Avio). The value of the body surface temperature change was calculated as the difference between the mean body surface temperature for 10min when water was presented and the mean body surface temperature for 20 min when each odor molecule was presented, and the change in the body surface temperature without odor was set to 0. […]
An influence of various thiazoline-related compounds on the body surface temperature was analyzed by a method similar to that in Example 1. As a control, an influence of an odor molecule that induces learned fear was also analyzed. […]

[2] = system: High Mobility Group Box 1 (HMGB1); assay: Blood HMGB1 in LPS sepsis model (ELISA); details: about 80 mg/kg i.p., 16 hr, versus saline
Method: (§1) Lipopolysaccharide (LPS) (0.6 mg/kg) was intraperitoneally administered to male Balb/c mice (about 2-3 months old) to generate a sepsis model. Immediately after the LPS administration, 200 μl (about 80 mg/kg) of a solution prepared by diluting various heterocyclic compounds and isothiocyanate compounds 100 times with saline was intraperitoneally administered. Blood samples were collected 60 min after LPS and compound administration, EDTA plasma was prepared, and the blood level of inflammatory cytokine TNF-a was measured by the ELISA method.
(§2) A sepsis model mouse was prepared by the same method as in Example 18. Immediately after the LPS administration, 200 μl (about 80 mg/kg) of a thiazoline-related compound (2MT) solution prepared by diluting 100 times with saline was intraperitoneally administered. Blood samples were collected 16 hr after administration of LPS and thiazoline-related compound (2MT), EDTA plasma was prepared, and the blood level of inflammatory mediator High Mobility Group Box 1 (HMGB1) was measured by the ELISA method.

Interleukin-1β (IL-1β) = assay: Blood IL-1β in LPS sepsis model (ELISA); details: about 80 mg/kg i.p., 1 hr and 4 hr, versus saline
Method: as §1
as §2, with “1 hr and 4” for “16”, “levels” for “level”, “cytokine Interleukin-1β (IL-1β), and anti-inflammatory cytokine Interleukin-10 (IL-10) were” for “mediator High Mobility Group Box 1 (HMGB1) was”

Male C57/BL6N mice [3] = assay: Skin blood flow on odor presentation (laser Doppler); details: filter paper scented with 271 μmol odor, 20 min, versus no odor
Method: An influence of a thiazoline-related compound and an odor molecule that induces learned fear on the skin blood flow was analyzed. Male C57/BL6N mice (about 3 months old) were anesthetized with pentobarbital (50 mg/kg, i.p.) about 5 days before the test, and the back hair was depilated with depilatory cream. A mouse restrainer having an observation window was prepared using a 50 ml tube, the mice were trained to enter the restrainer from the day after hair removal, and acclimated by performing this operation until the day before the test. On the day of testing, each mouse was placed in a restrainer, and a laser Doppler probe was attached to the shaved back of the mouse with an adhesive tape. After confirming that the blood flow signal became stable, (1) no odor was presented for 10 min, (2) Eugenol odor was presented for 10 min, (3) thiazoline-related compound (2MT) or an odor that induces learned fear (Anis-FS+) was presented for 20 min, and changes in the blood flow were measured. […] The blood flow rate was measured every 10 seconds using a laser Doppler blood flow meter (ADVANCE CO., LTD. ALF21D). The mean skin blood flow without odor (10 min) or with the presentation of a thiazoline-related compound or an odor that induces learned fear (20 min) was calculated, and the mean skin blood flow was shown as a relative value with the mean skin blood flow without odor as 100%.

Male C57/BL6N mice [4] = assay: Core body temperature on odor presentation (radio-telemetry); details: filter paper scented with 271 μmol odor, 20 min, versus no odor
Method: An influence of a thiazoline-related compound and an odor molecule that induces learned fear on the core body temperature was analyzed. A radio-telemetry device for monitoring biological parameters (manufactured by Physiotel) was surgically implanted in the abdomen of male C57/BL6N mice (about 3 months old). The mice were subjected to the following experiment after about 10 days of recovery period. Each mouse was placed in a test cage and, after acclimation for 10 min, a filter paper dropped with water was presented for 10 min, after which a filter paper scented with 271 μmol of a thiazoline-related compound (2-methyl-2-thiazoline; 2MT) or an odor molecule that induces learned fear (anisole) was presented for 20 min. The information of body temperature was recorded every 10 sec using Dataquest A.R.T. software (DataScience international). The value of the core body temperature change was calculated as the difference between the mean core body temperature for 10 min when water was presented and the mean core body temperature for 20 min when each odor molecule was presented, and the change in the core body temperature without odor was set to 0. The mice presented with the odor that induces learned fear were trained to associate the anisole odor with electric shock one day before the measurement, whereby the mice learned to feel learned fear against the smell of anisole.

CC1=NCCS1 [2MT, 2-methyl-2-thiazoline]
changes in the body surface temperature (Male C57/BL6N mice [1]): clear decrease in the body surface temperature
blood concentration of HMGB1 [2]: decreased the blood concentration of inflammatory mediator HMGB1
blood concentration of IL-1β (Interleukin-1β (IL-1β)): decreased the blood concentration of inflammatory cytokine IL-1β
skin blood flow (Male C57/BL6N mice [3]): decreased the skin blood flow
changes in the core body temperature (Male C57/BL6N mice [4]): clear decrease in the core body temperature
